The record followed here is PMC6864590, “Planar Cell Polarity Effector Proteins Inturned and Fuzzy Form a Rab23 GEF Complex” (Current Biology, 2019).

For assay [1], the target named is T1, Rab23 (Homo sapiens, UniProt Q9ULC3, N121I).
T1 construct: hexahistidine-GST-tagged (pFAT2), expressed in E. coli BL21(DE3) pRIL, Ni-NTA purified, tags kept
T1 sequence (Q9ULC3 1-237 N121I limits assumed): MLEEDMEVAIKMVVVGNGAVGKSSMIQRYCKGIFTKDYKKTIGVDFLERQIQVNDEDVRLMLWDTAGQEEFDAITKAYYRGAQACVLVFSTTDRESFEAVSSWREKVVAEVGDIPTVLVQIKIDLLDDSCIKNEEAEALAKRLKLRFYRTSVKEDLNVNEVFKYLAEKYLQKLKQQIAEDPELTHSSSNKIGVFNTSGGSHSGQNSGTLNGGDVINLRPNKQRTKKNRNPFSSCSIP
The assay is described as follows: radiolabelled nucleotide binding, GST pull-down. The settings on record: labelled compound; pH 6.8.

In another assay the target is T2, Rab32 (Homo sapiens, UniProt Q13637).
T2 construct: GST-tagged (pFAT2), expressed in E. coli BL21(DE3) pRIL, Ni-NTA purified
T2 sequence (Q13637 2-225): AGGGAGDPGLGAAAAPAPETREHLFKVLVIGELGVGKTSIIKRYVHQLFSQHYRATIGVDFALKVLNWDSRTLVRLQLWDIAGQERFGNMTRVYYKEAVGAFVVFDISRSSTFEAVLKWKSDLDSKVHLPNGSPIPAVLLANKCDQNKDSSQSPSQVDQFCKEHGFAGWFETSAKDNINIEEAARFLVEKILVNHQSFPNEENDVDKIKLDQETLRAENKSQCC
The assay is described as follows: [3H]-GDP release GEF endpoint assay, glutathione-Sepharose capture. It is filed as binding. The following applies: labelled compound; Hps1-Hps4 GEF, Mg-GTP, pH 6.8, 30°C.

The target in assay [2] is T3, Rab23 (Homo sapiens, UniProt Q9ULC3, M12K).
T3 construct: hexahistidine-GST-tagged (pFAT2), expressed in E. coli BL21(DE3) pRIL, Ni-NTA purified, tags kept
T3 sequence (Q9ULC3 1-237 M12K limits assumed): T1 sequence (Q9ULC3 1-237 N121I limits assumed) with M12K, I121N
The assay is described as follows: radiolabelled nucleotide binding, GST pull-down. The settings on record: labelled compound; pH 6.8.

Assay [3] addresses T4, Rab23 (Homo sapiens, UniProt Q9ULC3, C85R).
T4 construct: hexahistidine-GST-tagged (pFAT2), expressed in E. coli BL21(DE3) pRIL, Ni-NTA purified, tags kept
T4 sequence (Q9ULC3 1-237 C85R limits assumed): T1 sequence (Q9ULC3 1-237 N121I limits assumed) with C85R, I121N
The assay can be described thus: radiolabelled nucleotide binding, GST pull-down. The settings on record: labelled compound; pH 6.8.

The target in assay [4] is T5, Rab23 (Homo sapiens, UniProt Q9ULC3).
T5 construct: hexahistidine-GST-tagged (pFAT2), expressed in E. coli BL21(DE3) pRIL, Ni-NTA purified, tags kept
T5 sequence (Q9ULC3 1-237 limits assumed): T1 sequence (Q9ULC3 1-237 N121I limits assumed) with I121N
The assay is described as follows: [3H]-GDP release GEF endpoint assay, glutathione-Sepharose capture. It is filed as binding. The following applies: labelled compound; Intu-Fuz GEF, Mg-GTP, pH 6.8, 30°C.

A further assay addresses T6, Rab38 (Homo sapiens, UniProt P57729).
T6 construct: GST-tagged (pFAT2), expressed in E. coli BL21(DE3) pRIL, Ni-NTA purified
T6 sequence (P57729 1-211): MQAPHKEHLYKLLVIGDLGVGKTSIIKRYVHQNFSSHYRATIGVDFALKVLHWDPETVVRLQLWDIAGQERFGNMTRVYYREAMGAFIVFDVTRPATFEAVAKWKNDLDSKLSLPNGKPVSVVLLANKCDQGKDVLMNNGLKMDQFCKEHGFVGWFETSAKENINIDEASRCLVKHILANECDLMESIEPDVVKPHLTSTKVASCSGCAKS
Described as above. The settings on record: labelled compound; Hps1-Hps4 GEF, Mg-GTP, pH 6.8, 30°C. It is filed as binding.

A further assay deals with T7, Rab7 (Homo sapiens, UniProt P51149).
T7 construct: gene RAB7A; GST-tagged (pFAT2), expressed in E. coli BL21(DE3) pRIL, Ni-NTA purified
T7 sequence (P51149 2-207): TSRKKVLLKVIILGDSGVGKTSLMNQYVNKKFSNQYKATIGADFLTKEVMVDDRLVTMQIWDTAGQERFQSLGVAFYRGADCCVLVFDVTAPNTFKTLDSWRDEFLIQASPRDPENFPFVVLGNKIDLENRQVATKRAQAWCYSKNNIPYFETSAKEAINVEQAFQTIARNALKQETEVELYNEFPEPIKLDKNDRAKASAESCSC
The description is as above. It is filed as binding. The following applies: labelled compound; Mon1-Ccz1 GEF, Mg-GTP, pH 6.8, 30°C.

Assay [5] has as its target T3, Rab23. The assay can be described thus: basal GTP hydrolysis endpoint, charcoal assay. It is filed as biochemical. The settings on record: labelled compound; 30°C, 60 min, no GAP.
Assay [6] deals with T1, Rab23. The assay can be described thus: basal GTP hydrolysis endpoint, charcoal assay. The settings on record: labelled compound; 30°C, 60 min, no GAP. It is filed as biochemical.
Assay [7] concerns the target T5, Rab23. The assay is described as follows: basal GTP hydrolysis endpoint, charcoal assay. It is filed as biochemical. The following applies: labelled compound; 30°C, 60 min, no GAP.
Assay [8] concerns the target T4, Rab23. The assay can be described thus: basal GTP hydrolysis endpoint, charcoal assay. It is filed as biochemical. The settings on record: labelled compound; 30°C, 60 min, no GAP.

Residue numbers refer to the chain shown, from its start.

On to `Nc1nc2c(ncn2[C@@H]2O[C@H](COP(=O)(O)OP(=O)(O)O)[C@@H](O)[C@H]2O)c(=O)[nH]1` [GDP], for which the GDP binding result on Rab23 [1] was “Both Rab23^N121I and the two disease-associated mutants have reduced GDP-binding properties (Figure S3G)”; at Rab23 [2], “Both Rab23^N121I and the two disease-associated mutants have reduced GDP-binding properties (Figure S3G)”; at Rab23 [3], “Both Rab23^N121I and the two disease-associated mutants have reduced GDP-binding properties (Figure S3G)”. Further, the “GDP-GTP exchange (pmol)” value at Rab32 was “comparable to the Rab7 and Rab32/38-specific GEFs Mon1-Ccz1 and Hps1-Hps4, respectively (Figure 1D)”; on Rab23 [4] it was “Intu-Fuz complexes show specific GEF activity toward Rab23”; at Rab38, “comparable to the Rab7 and Rab32/38-specific GEFs Mon1-Ccz1 and Hps1-Hps4, respectively (Figure 1D)”; at Rab7, “comparable to the Rab7 and Rab32/38-specific GEFs Mon1-Ccz1 and Hps1-Hps4, respectively (Figure 1D)”.

`Nc1nc2c(ncn2[C@@H]2O[C@H](COP(=O)(O)OP(=O)(O)OP(=O)(O)O)[C@@H](O)[C@H]2O)c(=O)[nH]1` [GTP]: the GTP hydrolysis entry at Rab23 [5], on Rab23 [6], at Rab23 [7] and at Rab23 [8] was “show an increased rate of basal GTP-hydrolysis (Figure S3H)” throughout.
